{"source": "patent US4645840A", "about": "“Intermediates for preparing 1,2-dihydropyrido[3,4-b]-pyrazines” (Southern Research Institute, priority 1986, dated 1987)", "key": {"several neoplasms": {"tested_on": "several neoplasms", "details": "cited from earlier work"}, "[1]": {"tested_on": "lymphoid leukemia L1210 cells", "assay": "Inhibition of proliferation of cultured lymphoid leukemia L1210 cells", "type": "cell-based", "details": "Mus musculus", "experimental": "The 1,2-dihydropyrido[3,4-b]pyrazines of this invention are powerful inhibitors of the proliferation of cultured lymphoid luekemia L1210 cells as shown in Table IV.\n(a) Concentration of agent that inhibits proliferation of cultured\nlymphoid leukemia L1210 cells to 50% control growth during 48 hours. G. P\nWheeler, B. J. Bowdon, J. A. Werline, D. J. Adamson and C. Temple, Jr.,"}, "[2]": {"tested_on": "lymphoid leukemia L1210 cells", "assay": "Mitotic index of cultured lymphoid leukemia L1210 cells", "type": "cell-based"}, "[3]": {"tested_on": "lymphocytic leukemia P388 cells", "assay": "Activity against lymphocytic leukemia P388 (10^6 tumor cell implant, i.p.) in mice", "type": "in vivo", "details": "P388, 10^6 cells i.p.", "from_the_text": "(c) Lymphocytic leukemia P388. R. I. Geran, N. H. Greenbert, M. M.\nMacDonald, A. M. Schumacker, and B. J. Abbott, Cancer Chemother. Rep., 3"}, "[4]": {"tested_on": "Vincristine-resistant line of P388", "assay": "Activity against vincristine-resistant line of P388 in mice", "type": "in vivo", "details": "for activity against P388 cells resistant to vincristine: in mice", "from_the_text": "(g) Vincristineresistant line of P388. L. J. Wilkoff and E. A. Dulmadge, […]"}, "[5]": {"tested_on": "Methotrexate-resistant line of P388 (tumor P7)", "assay": "Activity against methotrexate-resistant line of P388 in mice", "type": "in vivo", "details": "methotrexate-resistant P388, schedule day 1, 100 mg/kg", "experimental": "(e) Methotrexateresistant line of P388 (designated tumor P7 by the Drug\nEvaluation Branch, National Cancer Institute). In mice with 10^6 cell\nimplant (IP), methotrexate at a dose of 2 mg/kg on the qd 1-9 schedule\ngave a 2log cell kill against the sensitive line of P388 and a 2log\nincrease in cells against the methotrexateresistant line of P388."}, "KB cell": {"tested_on": "KB cell", "details": "cited from earlier work"}, "[6]": {"tested_on": "lymphocytic leukemia P388 cells", "details": "sensitive line of P388, 10^6 cell implant IP, 2 mg/kg, qd 1-9; cited from earlier work"}, "[7]": {"tested_on": "Methotrexate-resistant line of P388 (tumor P7)", "details": "methotrexate-resistant line of P388, 10^6 cell implant IP, 2 mg/kg, qd 1-9; cited from earlier work"}, "[8]": {"details": "L1210, inhibits proliferation to 50% control growth during 48 hours (footnote a), read-out: ID50 (the source's name)"}}, "note": "Like-named read-outs stand apart in the source and are kept apart here.", "data": [{"smiles": "CCOC(=O)Nc1cc2c(c(N)n1)N=C(CN(C)c1ccccc1)CN2", "note": "[NSC-181928]", "values": [{"measurement": "activity against several neoplasms", "setting": "several neoplasms", "result": "active against several neoplasms"}]}, {"smiles": "CCOC(=O)Nc1cc2c(c(N)n1)N=C(CN(C)c1ccc(C(=O)OC)cc1)CN2", "note": "[R = 4-CH3 O2 CC6 H4 N(CH3)CH2 (R4 = H), reference compound]", "values": [{"measurement": "IC50", "setting": "[1]; [8]", "result": 58, "unit": "nM"}, {"measurement": "Mitotic Index 12 h", "setting": "[2]; 0.1 μM", "result": 0.44}, {"measurement": "Mitotic Index 12 h", "setting": "[2]; 0.3 μM", "result": 0.61}, {"measurement": "% ILS", "setting": "[3]; schedule days 1-9, 25 mg/kg", "result": 30, "unit": "%"}]}, {"smiles": "CCOC(=O)Nc1cc2c(c(N)n1)N=C(CN(C)c1ccc(OC)cc1)C(C)N2", "note": "(centres unmarked) [R = 4-CH3 OC6 H4 N(CH3)CH2 (R4 = CH3), Ethyl 5-Amino-1,2-dihydro-3-[[N-(4-methoxyphenyl)-N-methylamino]methyl]-2-methylpyrido[3,4-b]pyrazine-7-carbamate]", "values": [{"measurement": "IC50", "setting": "[1]; [8]", "result": 5.5, "unit": "nM"}, {"measurement": "Mitotic Index 12 h", "setting": "[2]; 0.3 μM", "result": 0.66}, {"measurement": "% ILS", "setting": "[3]; schedule days 1-5, 48 mg/kg", "result": 53, "unit": "%"}]}, {"smiles": "CCOC(=O)Nc1cc2c(c(N)n1)N=C(CN(C)c1ccc(OC)cc1)CN2", "note": "[R = 4-CH3 OC6 H4 N(CH3)CH2 (R4 = H)]", "values": [{"measurement": "IC50", "setting": "[1]; [8]", "result": 7.9, "unit": "nM"}, {"measurement": "activity against P388 cells resistant to vincristine", "setting": "[4]", "result": "active in mice against P388 cells that were resistant to vincristine"}, {"measurement": "% ILS", "setting": "[4]; vincristine-resistant P388, schedule day 1, 25 mg/kg", "result": 150, "unit": "%"}, {"measurement": "Mitotic Index 12 h", "setting": "[2]; 0.03 μM", "result": 0.64}, {"measurement": "Mitotic Index 12 h", "setting": "[2]; 0.3 μM", "result": 0.49}, {"measurement": "% ILS", "setting": "[3]; schedule day 1, 25 mg/kg", "result": 133, "unit": "%"}, {"measurement": "% ILS", "setting": "[3]; schedule day 1, 50 mg/kg", "result": 80, "unit": "%"}]}, {"smiles": "CCOC(=O)Nc1cc2c(c(N)n1)N=C(CN(C)c1ccc(Cl)cc1)CN2", "note": "[R = 4-ClC6 H4 N(CH3)CH2 (R4 = H)]", "values": [{"measurement": "IC50", "setting": "[1]; [8]", "result": 14.5, "unit": "nM"}, {"measurement": "Mitotic Index 12 h", "setting": "[2]; 0.03 μM", "result": 0.71}, {"measurement": "% ILS", "setting": "[3]; schedule day 1, 100 mg/kg", "result": 65, "unit": "%"}]}, {"smiles": "CCOC(=O)Nc1cc2c(c(N)n1)N=C(CCc1ccccc1)CN2", "note": "[R = C6 H5 CH2 CH2 (R4 = H), Ethyl 5-Amino-1,2-dihydro-3-(2-phenylethyl)pyrido(3,4-b)pyrazine-7-carbamate]", "values": [{"measurement": "IC50", "setting": "[1]; [8]", "result": 13, "unit": "nM"}, {"measurement": "Mitotic Index 24 h", "setting": "[2]; 0.3 μM", "result": 0.33}, {"measurement": "% ILS", "setting": "[3]; schedule day 1, 100 mg/kg", "result": 29, "unit": "%"}]}, {"smiles": "CCOC(=O)Nc1cc2c(c(N)n1)N=C(CN(C)c1ccccc1)CN2", "note": "[R = C6 H5 N(CH3)CH2 (R4 = H), Ethyl 5-Amino-1,2-dihydro-3-[(N-methyl-N-phenyl)aminomethyl]pyrido[3,4-b]pyrazine-7-carbamate]", "values": [{"measurement": "IC50", "setting": "[1]; [8]", "result": 8.4, "unit": "nM"}, {"measurement": "activity against P388 cells resistant to vincristine", "setting": "[4]", "result": "active in mice against P388 cells that were resistant to vincristine"}, {"measurement": "% ILS", "setting": "[4]; vincristine-resistant P388, schedule day 1, 67 mg/kg", "result": 90, "unit": "%"}, {"measurement": "Mitotic Index 12 h", "setting": "[2]; 0.03 μM", "result": 0.77}, {"measurement": "Mitotic Index 24 h", "setting": "[2]; 0.3 μM", "result": 0.80}, {"measurement": "% ILS", "setting": "[3]; schedule day 1, 100 mg/kg", "result": 114, "unit": "%"}, {"measurement": "% ILS", "setting": "[5]", "result": 66, "unit": "%"}]}, {"smiles": "CC[C@]1(O)C[C@H]2CN(CCc3c([nH]c4ccccc34)[C@@](C(=O)OC)(c3cc4c(cc3OC)N(C=O)[C@H]3[C@@](O)(C(=O)OC)[C@H](OC(C)=O)[C@]5(CC)C=CCN6CC[C@]43[C@@H]65)C2)C1", "note": "[Vincristine, reference compound]", "values": [{"measurement": "IC50", "setting": "[1]; L1210, 48 h, read-out: ID50", "result": 1, "unit": "nM"}]}, {"smiles": "CCOC(=O)Nc1cc2c(c(N)n1)N=C(CN(C)c1ccc(C(=O)OC)cc1)CN2", "note": "[drawing 5]", "values": [{"measurement": "cytotoxicity in the KB cell culture screen", "setting": "KB cell", "result": "showed cytotoxicity in the KB cell culture screen"}]}, {"smiles": "CN(Cc1cnc2nc(N)nc(N)c2n1)c1ccc(C(=O)N[C@@H](CCC(=O)O)C(=O)O)cc1", "note": "[methotrexate]", "values": [{"measurement": "log cell kill", "setting": "[6]", "result": 2, "unit": "log"}, {"measurement": "log increase in cells", "setting": "[7]", "result": 2, "unit": "log"}]}]}
